For the series, the target named is hERG potassium ion channel (Homo sapiens, UniProt Q12809). In words: in vitro. The following applies: human. The method, then:
CHO-hERG cells were cultured in a 175 cm^2 flask, and when the cell density was increased to 60-80%, the medium was removed and washed with 7 mL of PBS (Phosphate Buffered Saline phosphate buffer), and then digested with 3 mL of Detachin.
The single-cell high impedance sealing and the whole-cell mode formation process were all automatically completed by the Qpatch instrument. After obtaining the whole-cell recording mode, the cells were clamped at −80 mV (millivolt). Before giving a 5-second+40 mV depolarization stimulus, a 50 ms-50 mV pre-voltage was first given, repolarized to −50 mV for 5 seconds, and then returned to −80 mV. This voltage stimulation was applied every 15 seconds. After recording for 2 minutes, extracellular fluid was given for 5 minutes, and then the administration process was started. The compound concentration started from the lowest test concentration, and each test concentration was given for 2.5 minutes. […] At least 3 cells were tested at each concentration (n≥3).
The 20 mM compound mother solution was diluted with extracellular fluid, and 5 μL of 20 mM compound mother solution was added to 2495 μL of extracellular solution, diluted 500-fold to 40 μM, and then sequentially performed 3-fold continuous dilution in an extracellular fluid containing 0.2% DMSO to obtain the final concentration to be tested.
The experimental data were analyzed by XLFit software.

hERG potassium ion channel, sequence (Q12809 whole entry): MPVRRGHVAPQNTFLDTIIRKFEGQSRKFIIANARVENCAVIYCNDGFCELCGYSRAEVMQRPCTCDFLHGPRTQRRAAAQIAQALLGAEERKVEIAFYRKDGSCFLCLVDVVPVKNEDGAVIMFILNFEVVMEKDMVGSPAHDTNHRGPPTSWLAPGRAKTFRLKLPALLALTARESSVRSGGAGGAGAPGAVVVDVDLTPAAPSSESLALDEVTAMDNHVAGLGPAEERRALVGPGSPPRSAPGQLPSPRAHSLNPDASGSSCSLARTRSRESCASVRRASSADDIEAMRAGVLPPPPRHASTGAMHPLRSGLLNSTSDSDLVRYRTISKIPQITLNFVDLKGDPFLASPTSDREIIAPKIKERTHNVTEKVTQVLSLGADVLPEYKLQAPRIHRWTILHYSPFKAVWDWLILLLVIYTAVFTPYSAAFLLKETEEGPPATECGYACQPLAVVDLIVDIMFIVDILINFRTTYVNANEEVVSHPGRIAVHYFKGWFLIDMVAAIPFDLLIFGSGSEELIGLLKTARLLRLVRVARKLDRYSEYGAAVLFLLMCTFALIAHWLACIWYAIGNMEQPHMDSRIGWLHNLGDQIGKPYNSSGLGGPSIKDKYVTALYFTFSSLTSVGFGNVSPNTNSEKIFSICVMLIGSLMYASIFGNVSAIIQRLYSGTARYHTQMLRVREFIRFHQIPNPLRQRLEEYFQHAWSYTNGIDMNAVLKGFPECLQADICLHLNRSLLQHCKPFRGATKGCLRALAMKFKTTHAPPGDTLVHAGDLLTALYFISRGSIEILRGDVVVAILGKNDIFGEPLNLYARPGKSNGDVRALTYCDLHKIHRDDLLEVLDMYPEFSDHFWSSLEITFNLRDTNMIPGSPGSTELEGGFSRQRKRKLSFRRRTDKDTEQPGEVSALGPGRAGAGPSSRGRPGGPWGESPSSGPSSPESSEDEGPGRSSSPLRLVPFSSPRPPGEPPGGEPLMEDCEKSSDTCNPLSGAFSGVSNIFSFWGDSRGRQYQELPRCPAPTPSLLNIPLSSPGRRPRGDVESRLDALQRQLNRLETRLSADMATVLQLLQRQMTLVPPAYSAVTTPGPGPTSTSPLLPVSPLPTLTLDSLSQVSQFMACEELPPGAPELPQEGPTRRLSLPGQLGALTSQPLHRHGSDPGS

Regarding `COc1cc(N)c(Cl)cc1C(=O)NC1CCN(CCCOc2ccc(F)cc2)CC1OC` (stereo not shown) [Cisapride], the inhibition (commonly the relative decrease from the control value, in per cent) at 2.5 min, 40 µM amounted to 87.4%.

The values above are taken from patent US11072596B2, “Poly(ADP-ribose) polymerase inhibitor, preparation method and use” (SELECTION BIOSCIENCE LLC, priority 2017, dated 2021).
